Where two headings read alike, the source gives them in different places.

These results are taken from patent US5480892A, “(N-phthalimidoalkyl)piperidines” (The Du Pont Merck Pharmaceutical Company, priority 1994, dated 1996).

Data set [1] relates to isolation-induced aggression in mice. Briefly: Isolation-Induced Aggression in Mice. The conditions noted are these: for ED50: Mus musculus, po, 0.25 h, read-out: Inhibition of Isolation-induced Aggression (ED50 class). The data set is classed as in vivo, mouse (male Balb/c).
Procedure: Male Balb/c mice (Charles River) were used. […] Isolated mice failing to consistently attack an intruder were eliminated from the colony.
Drug testing was carried out by treating the isolated mice with test drugs or standards. Fifteen min after dosing with drugs by the oral route (p.o.), one isolated mouse was removed from its home cage and placed in the home cage of another isolate. Scoring was a yes or no response for each pair. A maximum of 3 min was allowed for an attack and the pair was separated immediately upon an attack. Selection of home cage and intruder mice was randomized for each test. Mice were treated and tested twice a week with at least a 2 day washout period between treatments.
For data set [2], the system named is mescaline-induced scratching in mice. The experiment in a line: Mescaline-Induced Scratching in Mice. The conditions noted are these: Mus musculus, 0.75 h, mescaline 25 mg/kg orally, 10 mg/kg po, read-out: Inhibition of Mescaline Scratch (ED50 class). The class given is in vivo, mouse (male CF1). Here is the method: This is a modification of the procedure of Fellows and Cook (in Psychotropic Drugs, ed. by S. Garrattini and V. Ghatti, pp. 397-404, Elsevier, Amsterdam, 1957) and Deegan and Cook (J. Pharmacol. Exp. Ther. 122: 17A, 1958). Male CF1 Mice (Charles River) were injected orally with test compound and placed singly into square (13 cm) Plexiglass observation chambers. Twenty minutes later mice were injected orally with mescaline (25 mg/kg). Beginning 25 minutes after treatment with mescaline (45 minutes after treatment with test compound), scratching episodes were counted during a 5 minute observation period. A scratching episode is defined as a brief (1-2 sec) burst of scratching either the head or the ear with the hind foot.

Another data set has as its target T1, Sigma receptor (Cavia porcellus, UniProt Q60492).
T1 construct: Brain membranes were prepared by the method of Tam; from tissue; host or cells: guinea pig whole brain membranes
Briefly: Sigma Receptor Binding Assay. The class given is guinea pig (male Hartley), brain membranes. To be noted: 1 nM (+)-[3H]SKF 10,047, guinea pig brain membranes, pH 7.4, 45 min room temperature; read-out: Receptor Binding Affinity Sigma (Ki class).

Data set [3] relates to catalepsy in rats. The experiment in a line: Induction of Catalepsy. To be noted: statement on Table III.
For data set [4], the system named is PCP-induced turning behavior in rats. Briefly: PCP-Induced Turning Behavior in Rats. The data set is classed as in vivo, rat (male Sprague-Dawley). The conditions noted are these: for ED50: Rattus norvegicus, po, 6-OHDA lesioned rats, drug p.o. 20 min before, PCP 1.5 mg/kg s.c., read-out: Inhibition of PCP-induced Turning (ED50 class). Here is the method: Male Sprague-Dawley rats (CD/CR, Charles River), weighing 190-290 g, were used for surgery. In order to spare […] neurons, rats were injected with 25 mg/kg imipramine intraperitoneal (i.p.) 30 min before surgery. The rats were anesthetized with a 1:1.2 ratio mixture of Xylazine:Ketamine given 0.1 mL/100 g body weight intramuscular (i.m.). A Ringers-Wydaze (100:0.01) solution was given to prevent dehydration. Dopamine was depleted in the right striatum by injecting the neurotoxin 6-hydroxydopamine (6-OHDA) into the substantia nigra of the right cerebral hemisphere. Five mg of 6-OHDA was dissolved in 5 mL of a 0.04% ascorbic acid solution which had been deoxygenated with nitrogen. Five μL of the 6-OHDA solution was injected into the substantia nigra through a 26 gauge needle over a five min period. Stereotaxic injection coordinates were -2.5 mm posterior to bregma, -2.1 mm right of the midsagittal suture, and -8.6 mm below the skull surface with the incisor bar set at +5.0 mm. Following surgery they were given 10 days to recover while housed four per cage (45.0 L×20.0 H×26.0 W) with ALPHA-dri bedding and ad lib access to Pro-Lab rodent chow and deionized water. […] At all times they were housed in the animal care facility under a 12--12 hour light/dark cycle (light on at 6:00 h, light off at 18:00 h).
Rotation rate and direction were determined with Coulbourn Instruments Rotometry Monitors. Clockwise and counter clockwise rotations were recorded at 30 and 60 min intervals. The rats were examined for correct lesion location by testing for rotational activity induced by subcutaneous (s.c.) injections of 3.0 mg/kg D-amphetamine SO4, and 2.0 mg/kg PCP HCl, respectively. These drugs were administered in the following sequence: Amphetamine was given 30 sec before testing. […]
The data was analyzed with an analysis of variance statistical test, and individual comparisons of each dose of test drug to control were made with Dunnett's multiple range test. The ED50 was calculated with a Litchfield and Wilcoxon test using percent of control values.

A further data set in a line: in vivo. The conditions noted are these: rat, po.
Data set [5] relates to catalepsy in rats. The conditions noted are these: rat, in vivo.
Another data set has as its target T2, Dopamine (D-2) receptor (Cavia porcellus, UniProt H0VE83).
T2 construct: Membranes were prepared from guinea pig striatum; from tissue; host or cells: guinea pig striatum membranes
Briefly: Dopamine Receptor Binding. To be noted: 0.15 nM [3H]spiperone, guinea pig striatum, pH 7.7, 15 min 37° C.; read-out: Receptor Binding Affinity Dopamine (D-2) (Ki class). The class given is guinea pig, striatum membranes.

Setting [6] is: mice, p.o., 15 min after dosing.

T1 sequence (Q60492 whole entry): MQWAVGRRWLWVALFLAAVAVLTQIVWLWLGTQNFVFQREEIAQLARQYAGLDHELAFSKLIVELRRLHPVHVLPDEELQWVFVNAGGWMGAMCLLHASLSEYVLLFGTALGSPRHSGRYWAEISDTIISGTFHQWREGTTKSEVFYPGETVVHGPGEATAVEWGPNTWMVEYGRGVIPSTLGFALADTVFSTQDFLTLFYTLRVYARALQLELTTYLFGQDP
T2 sequence (H0VE83 1-446): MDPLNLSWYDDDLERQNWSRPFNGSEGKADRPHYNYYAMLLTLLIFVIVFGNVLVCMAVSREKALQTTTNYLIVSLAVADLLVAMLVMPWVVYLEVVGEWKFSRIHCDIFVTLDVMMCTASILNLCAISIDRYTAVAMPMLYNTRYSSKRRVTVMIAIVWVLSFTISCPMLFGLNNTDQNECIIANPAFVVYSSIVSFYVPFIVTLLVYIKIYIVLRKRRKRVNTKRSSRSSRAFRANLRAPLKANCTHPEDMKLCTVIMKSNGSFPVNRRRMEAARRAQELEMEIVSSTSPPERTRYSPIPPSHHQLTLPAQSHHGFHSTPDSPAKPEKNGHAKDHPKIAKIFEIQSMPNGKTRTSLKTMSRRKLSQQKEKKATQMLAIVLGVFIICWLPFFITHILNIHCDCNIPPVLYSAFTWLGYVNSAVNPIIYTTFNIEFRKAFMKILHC
Procedure for Dopamine (D-2) receptor: Membranes were prepared from guinea pig striatum by the method described for sigma receptor binding. The membranes were then resuspended in 50 mM Tris HCl (9 mL per brain).
Nonspecific binding was measured in the presence of 100 nM (+)-butaclamol After 15 min of incubation at 37° C. samples were filtered rapidly through Whatman GF/C glass filters under negative pressure, and washed three times with ice-cold binding buffer (5 mL).
Procedure for Sigma receptor: Male Hartley guinea pigs (250-300 g, Charles River) were sacrificed by decapitation. […] Whole brains were homogenized (20 sec.) in 10 vol (wt/vol) of ice-cold 0.34 M sucrose with a Brinkmann Polytron (setting 8). The homogenate was centrifuged at 920×g for 10 min. The supernatant was centrifuged at 47,000×g for 20 min. The resulting membrane pellet was resuspended in 10 vol (original wt/vol) of 50 mM Tris HCl (pH 7.4) and incubated at 37° C. for 45 min to degrade and dissociate bound endogenous ligands. The membranes were then centrifuged at 47,000×g for 20 min and resuspended in 50 mM Tris HCl (50 mL per brain).
After 45 rain of incubation at room temperature, samples were filtered rapidly through Whatman GF/C glass filters under negative pressure, and washed 3 times with ice-cold Tris buffer (5 mL).
IC50 s were calculated from log-logit plots. Apparent Ki s were calculated from the equation, Ki =IC50 /[1+(L/Kd)], where L is the concentration of radioligand and Kd is its dissociation constant.

Turning to `CCCCCCC1C2=C(CCCC2)C(=O)N1CC1CCN(CCc2ccccc2)CC1` (stereo not shown) [Example 138], the ED50 in data set [1] (setting [6]) and in data set [2] was less than 11 mg/kg in each case. Besides, the Ki – broadly, the dissociation constant of the complex between target and ligand, obtained from inhibition or displacement – on Sigma receptor is 1 to 30 nM.

For `Cc1ccc(C2C3=C(CCCC3)C(=O)N2CC2CCN(CCc3ccccc3)CC2)cc1` (stereo not shown) [Example 143], the ED50 in data set [1] (setting [6]) and in data set [2] was less than 11 mg/kg in each case.

As for `O=C1C2=C(CCCC2)C(c2ccc(F)cc2)N1CC1CCN(CCc2ccccc2)CC1` (stereo not shown) [Example 136], the ED50 in data set [1] (setting [6]) and in data set [2] was less than 11 mg/kg in each case. Also, on Sigma receptor, the Ki was in the range of 31 to 100 nM.

On to `CCCCC1C2=C(CCCC2)C(=O)N1CC1CCN(CCc2ccccc2)CC1` (stereo not shown) [Example 135], for which the ED50 in data set [1] (setting [6]) and in data set [2] was less than 11 mg/kg throughout.

Turning to `O=C1C2=C(CCCC2)C(c2ccccc2)N1CC1CCN(CCc2ccccc2)CC1` (stereo not shown) [Example 134], in data set [2], the ED50 (commonly the midpoint of the dose-response relation) was less than 11 mg/kg. In addition, at Sigma receptor, the Ki fell in the range of 31 to 100 nM.

With `CC1C2=C(CCCC2)C(=O)N1CC1CCN(CCc2ccc(F)cc2)CC1` (stereo not shown) [Example 137], the ED50 in data set [1] (setting [6]) and in data set [2] was less than 11 mg/kg throughout.

`CCCC1C2=C(CCCC2)C(=O)N1CC1CCN(CCc2ccccc2)CC1` (stereo not shown) [Example 144]: the ED50 in data set [1] (setting [6]) and in data set [2] was less than 11 mg/kg in each case.

Regarding `O=C1C2=C(CCCC2)C(c2ccco2)N1CC1CCN(CCc2ccccc2)CC1` (stereo not shown) [Example 141], the ED50 in data set [2] was less than 11 mg/kg. On Sigma receptor, the Ki was 1 to 30 nM.

As for `CC(C)CC1C2=C(CCCC2)C(=O)N1CC1CCN(CCc2ccccc2)CC1` (stereo not shown) [Example 139], the ED50 in data set [1] (setting [6]) and in data set [2] was less than 11 mg/kg each time. The Ki at Sigma receptor is 1 to 30 nM.

Regarding `CCC(C)C1C2=C(CCCC2)C(=O)N1CC1CCN(CCc2ccccc2)CC1` (stereo not shown) [Example 140], the ED50 in data set [2] is less than 11 mg/kg. At Sigma receptor, the Ki lay within 31 to 100 nM.

As for `O=C1C2=C(CCCC2)C(c2cccs2)N1CC1CCN(CCc2ccccc2)CC1` (stereo not shown) [Example 142], the ED50 in data set [2] is less than 11 mg/kg. Besides, the Ki at Sigma receptor was 1 to 30 nM.

In the case of `O=C(CCCN1CCC(O)(c2ccc(Cl)cc2)CC1)c1ccc(F)cc1` [haloperidol, reference compound], the “producing catalepsy” value in the data set on catalepsy in rats [3] was “very potent in producing catalepsy”. In addition, the ED50 (in data set [1]; in data set [4]; in the data set “in vivo”) was less than 11 mg/kg throughout. Besides, in data set [1] (statement on Table II), the “inhibiting the isolation-induced aggressive behavior” value is on record as “potent activities”. Further, the “inhibiting PCP-induced turning behavior” value in data set [4] (statement on Table III, rats) is “potent activity”.

Take `O=C1[C@H]2CCCC[C@H]2C(=O)N1CC1CCN(CCc2ccccc2)CC1` [Example 3, 2-[1-(2-Phenylethyl)-4-piperidinylmethyl]-cis-3a,4,5,6,7,7a-hexahydro-1H-isoindole-1,3(2H)-dione]: the “producing catalepsy” value in the data set on catalepsy in rats [5] is “does not produce catalepsy”. Also, the Ki is greater than 500 nM on Dopamine (D-2) receptor and 1 to 30 nM at Sigma receptor. The ED50 in data set [1] (setting [6]) is 11 to 20 mg/kg; in data set [4], 21 to 70 mg/kg; in the data set “in vivo” it was greater than 70 mg/kg.
